Reference: US12194046B2 (priority 2021, dated 2025)

How the values were obtained:
human hepatocytes = system: human hepatocytes
Method: Cryopreserved human hepatocytes were thawed and suspended into 50 ml of InVitro GRO HT-medium. The cells were centrifuged (50 g, 5 min) and resuspended into InVitro GRO KHB-medium (protein free). The cell density and viability were determined by trypan blue exclusion method.
Instrumentation: Waters Acquity UPLC+Waters TQ-S triple quadrupole MS; Column: Phenomenex Kinetex Biphenyl (2.1×100 mm, 1.8 μm) column with guard filter; Software: MassLynx 4.2.
The samples were analysed at 0, 30, 60, 90, and 120 minutes (with and without hepatocytes) by LC/MS/MS to monitor substrate depletion and formation of metabolites theophylline, theobromine and paraxanthine.

[1] = Pharmacokinetic study: plasma and brain concentrations after a single oral (gavage) dose in rats; format: in vivo, Sprague-Dawley rats; conditions: oral gavage 2 mg/kg
Excerpt: Serial blood samples were collected from three animals per group per timepoint prior to dosing and at 0.25, 0.5, 1, 2, 3 4, 6, 8, 10, 12, and 14-hours post dose. No more than three blood samples were collected from individual animals with the last sample being a terminal blood draw. Terminal brain samples were collected from three animals per group at 1, 4, 8, and 14-hours post dose. Blood samples were collected into tubes containing sodium heparin, and then processed for plasma and stored frozen until bioanalysis. Brain samples were collected following the terminal blood collection, rinsed with saline, and stored frozen until bioanalysis.
Non-compartmental pharmacokinetic parameter estimates were calculated from the mean plasma concentration-time data.
Animals were fasted overnight prior to dose administration. Water was provided ad libitum. Food was returned after the collection of the 4-hour samples.
Prior to dosing, the body weight of each animal was recorded. Doses (rounded to the nearest 0.001 mL) were calculated based on the pretreatment body weight (kg) and a dose volume of 10 mL/kg. […] Dosing syringes were weighed immediately prior to and immediately after dosing each animal, and the quantity of formulation administered to each animal was determined from the difference in syringe weights.
Immediately after the 1, 4, 8 and 14-hour blood collections, three animals/group were euthanized and the brain was dissected out of each rat. […] Brain weights were calculated for each sample. […]
The concentration-time data were analyzed to fit an extra-vascular (oral gavage) dosing plasma analysis model (200) using the software WinNonlin Phoenix version 6.3 (Pharsight).
Areas-under-the-plasma concentration-time curves (AUC) were estimated using the linear trapezoidal rule. […] Apparent T1/2 was calculated using the slope of the log-linear terminal phase of the concentration-time curve, defined by a minimum of three plasma concentration-time points. Half-lives are reported if the correlation for the regression line, as measured by r squared, is ≥0.9, when rounded.

clinical = conditions: both, human, in vivo, po

Which “formation of metabolite theobromine” value (human hepatocytes) does the source give for `Cn1c(=O)c2c(ncn2C)n(C)c1=O` [caffeine, reference compound] here?
Its value is “not detected”.

What about the “substrate depletion (disappearance)” value (human hepatocytes) of the same molecule?
Its value is “No clear disappearance”.

What about the “Cmax, corr (molecular weight corrected)” value ([1]; rat plasma, caffeine values multiplied by 0.956) of the same molecule?
Its value is 2486 ng/mL.

And the half-life (clinical; 50 mg)?
Its half-life is 5.41 h.

What about the AUC(0-t) (clinical; 52.3 mg) of the same molecule?
The AUC(0-t) was 47.2 µM·h.

And the Cmax (clinical; 52.3 mg)?
Its Cmax is 5.32 µM.

And the MRT (clinical; 52.3 mg)?
The MRT was 7.3 h.

What about the half-life (clinical; 250 mg) of the same molecule?
The half-life was 4.25 h.

And the AUC(0-t) (clinical; 261.7 mg)?
Its AUC(0-t) is 206 µM·h.

What about the Cmax (clinical; 261.7 mg) of the same molecule?
Its Cmax is 25.1 µM.

What about the MRT (clinical; 261.7 mg) of the same molecule?
Its MRT is 4.3 h.

For `[2H]C([2H])([2H])n1c(=O)c2c(ncn2C([2H])([2H])[2H])n(C([2H])([2H])[2H])c1=O` [d9-caffeine, 1,3,7-tri-trideuteromethylxanthine], which “formation of metabolite theobromine” value (human hepatocytes) is on record?
The value was “not detected”.

What about the “substrate depletion (disappearance)” value (human hepatocytes) of the same molecule?
The value was “No clear disappearance”.

And the “total brain exposure (AUClast,corr) higher than caffeine” value ([1]; rat brain, molecular weight corrected)?
Its value is “approximately 52%”.

What about the “total systemic exposure (AUCinf) higher than caffeine” value ([1]; rat plasma, molecular weight corrected) of the same molecule?
The value was “approximately 77%”.

What about the half-life (clinical; 50 mg) of the same molecule?
The half-life was 32.2 h.

And the AUC(0-t) (clinical; 52.3 mg)?
The AUC(0-t) was 192 µM·h.

And the Cmax (clinical; 52.3 mg)?
Its Cmax is 6.62 µM.

And the MRT (clinical; 52.3 mg)?
The MRT was 19.7 h.

What about the half-life (clinical; 250 mg) of the same molecule?
Its half-life is 25.6 h.

What about the AUC(0-t) (clinical; 261.7 mg) of the same molecule?
Its AUC(0-t) is 972 µM·h.

What about the Cmax (clinical; 261.7 mg) of the same molecule?
The Cmax was 36.5 µM.

And the MRT (clinical; 261.7 mg)?
The MRT was 18.9 h.
